According to patent US20210308078A1, “NEW USE OF INHIBITORS OF MONOAMINE OXIDASE TYPE B” (ISTITUTO Di RICERCA PEDiATRiCA CITTA DELLA SPERANZA, priority 2018, published 2021):

Key:
MAOA, MAOB = settings: cited from earlier work
caspase-1 = experiment: Caspase-1 activation assay (FLICA 660-YVAD-FMK, FACS) in human macrophages; format: cell-based; settings: LPS/ATP and LPS/nigericin, 8 h; pargyline 100 μM, rasagiline 5 μM, NAC 5 mM
Description: The cells were then marked with fluorescent antibodies anti-MHCII and analysed by FACS. The activity of the inflammasome was expressed as % of the cells that were positive for caspase-1 and for MHCII in relation to the total. The values are the average of at least 3 independent experiments±SEM.
(§1) Human monocytes derived from buffy coats obtained from healthy donors were prepared as described in Cathcart, M. K., and Bhattacharjee, A. (2014). […] For macrophage differentiation, 5×10^6 monocytes, seeded in 24-well plates, were cultivated in RPMI 20% FBS in the presence of 10 ng/ml GM-CSF (Miltenyi Biotec) for 7 days. For inflammasome activation, 2×10^6 cells in 6-well plates were treated for 8 h with 100 ng/m1 of LPS Ultra-pure combined with ATP (1 mM) or nigericine (15 μM, added the last 30 min).
The activation of caspase-1 in human macrophages was monitored by way of flow cytometry analysis. The cells, subjected to various treatments, were incubated at 37° C. for 3 h with FLICA 660-YVAD-FMK and washed according to the manufacturer's instructions (FLICA®660 Caspase-1 Assay Kit; ImmunoChemistry Technologies). […] The analysis was performed using CellQuest software (Becton Dickinson) in cells positive for caspase-1 and MHCII.

IL-1β [1] = experiment: IL-1β release in human macrophages (ELISA); format: cell-based; settings: LPS/ATP and LPS/nigericin, 8 h, pargyline 100 μM, rasagiline 5 μM, NAC 5 mM
Description: FIG. 6. […] The levels of IL-1β in the supernatants were quantified by means of ELISA test. The values are the average of at least 3 independent experiments±SEM.
as §1

IL-1β [2] = experiment: IL-1β release in murine macrophages (ELISA); format: cell-based; settings: LPS 100 ng/ml + ATP 5 mM, 4 h, pargyline 100 μM, rasagiline 5 μM
Description: FIG. 7. […] The levels of IL-1β in the supernatants were quantified by means of ELISA test.
Murine macrophages isolated from bone marrow were obtained from the tibia and femoral bone as described in Coll, R. C., Robertson, A. A., Chae, J. J., Higgins, S. C., Munoz-Planillo, R., Inserra, M. C., Vetter, I., Dungan, L. S., Monks, B. G., Stutz, A., et al. (2015). A small-molecule inhibitor of the NLRP3 inflammasome for the treatment of inflammatory diseases. Nature medicine 21, 248-255.
[…] ATP (5 mM, added the last 30 min).
The culture media sampled from stimulated and control human and murine macrophages were stored at −80° C. The levels of IL-1β0 were determined by means of commercially available ELISA kits (eBioscience) and were developed using 3,3′,5,5′-tetramethyl benzidine (TMB). The optical densities were measured at 450 nm by means of a microplate reader (Sunrise, Tecan; Switzerland).

MAO = settings: human macrophages stimulated 8 h with LPS, LPS/ATP or LPS/nig; pargyline 100 μM, rasagiline 5 μM
Description: The intracellular levels of dopamine and norepinephrine (both substrates of MAO) were measured by means of mass spectrometry on cell lysates extracted with methanol:water (70:30). […] The values are the average of at least 3 independent experiments±SEM.
as §1

human macrophages [3] = settings: stimulation with LPS/ATP and LPS/nigericine, 3 h; rasagiline 5 μM
Description: The images were acquired by means of fluorescence microscopy. The data are expressed as fluorescence intensity and are normalised with respect to unstimulated cells (unst). The values are the average of at least 3 independent experiments±SEM.
as §1
ROS were determined by means of carboxymethyl-dichlorofluorescein (CM-DCFDA). […] After 3 h of stimulation the cells were loaded with CM-DCFDA (2.5 μM) for 30 min. All of the steps were performed at 37° C. with 5% CO2. The cells were washed with PBS and the images were acquired using a Leica DMI6000B microscope (Wetzlar, Germany). The fluorescence was measured at 6-8 random intervals per slide and an average value was recorded. The fluorescence emission was performed using excitation filters of emission 488±20 nm and 645±37 nm. The data were acquired and analysed by means of Metafluor software (Universal Imaging).

human macrophages [4] = settings: 8 h of stimulation; rasagiline 5 μM pre-treatment
Description: After 8 h of stimulation, the macrophages were loaded with tetramethylrhodamine methyl ester (TMRM, 50 nM) to determine the mitochondrial membrane potential. After acquisition of images by fluorescence microscopy, the uncoupling agent FCCP (4 μM) was added to collapse the mitochondrial potential. The difference of the fluorescence intensity obtained before and after FCCP is shown in the graph and reflects the mitochondrial membrane potential. The data are expressed as fluorescence intensity and are normalised with respect to unstimulated cells (unst). The values are the average of at least 3 independent experiments±SEM. […]
The mitochondrial membrane potential was measured on the basis of the accumulation of tetramethylrhodamine methyl ester (TMRM, Molecular Probes) as described in Sorato, E., Menazza, S., Zulian, A., Sabatelli, P., Gualandi, F., Merlini, L., Bonaldo, P., Canton, M., Bernardi, P., and Di Lisa, F. (2014). […] The medium was then substituted with a medium devoid of serum integrated with TMM 25 nM for 30 minutes, and the cell fluorescence images were acquired using a Leica microscope (Wetzlar, Germany) DMI6000B. The data were acquired and analysed by means of Metafluor software (Universal Imaging). An excitation of 540±20 nm and a 590 nm longpass emission filter were used to reveal the fluorescence. […]

NF-κB = settings: murine macrophages
Description: The values are the average of at least 3 independent experiments±SEM.

mice treated with LPS = settings: rasagiline 0.5 mg/kg per os 12 h before LPS 10 mg/kg ip, 8 h
Description: In parallel, a group of mice (ct) were treated with only the vehicle (PBS, ip). At the end, a sample of blood was taken and the plasma levels of IL-1β0 were quantified by means of Elisa test. […] The values are the average of at least 3 independent experiments±SEM.
In parallel, a group of mice (ct) were treated with only the vehicle (PBS, ip). At the end, peritoneal washing with 2 ml of PBS was performed, as well as a leukocyte count.
Adult mice were treated with a single injection of LPS (10 mg/kg ip) for 8 h or of vehicle (PBS, ip). […] At the end, the animals were sacrificed and samples were taken of blood and the peritoneal exudate.
Male mice (strain C57BL/6J) of age 8-10 weeks and weight approximately 30 gr. were subjected to an intraperitoneal injection with LPS (10 mg/kg, L4130, Sigma-Aldrich) or vehicle (saline solution, called PBS). […] The treated animals were sacrificed 8 hours after the injection (considered as time 0), by means of cervical dislocation. Immediately after the sacrifice an intraperitoneal washing was performed with 2 ml of PBS and any exudate present was collected to determine the leukocyte count. In addition, samples of blood were taken and frozen after obtaining the plasma for analysis of IL-1β by means of ELISA test.

N[C@@H]1C[C@H]1c1ccccc1 (racemic) [tranylcypromine]
selectivity of inhibition for MAOA / MAOB isoforms (MAOA, MAOB): lack selectivity

CC(=O)N[C@@H](CS)C(=O)O [N-acetylcysteine]
activity of the inflammasome (% cells positive for caspase-1 and MHCII) (caspase-1): effect is similar | release of IL-1β in supernatants (IL-1β [1]): effect is similar

C#CCN(C)Cc1ccccc1 [pargyline]
activity of the inflammasome (% cells positive for caspase-1 and MHCII) (caspase-1): significantly inhibit the activity of the inflammasome | release of IL-1β in supernatants (IL-1β [1]): significantly inhibit the release of IL-1β | release of IL-1β in supernatants (IL-1β [2]): significantly inhibit the release of IL-1β | intracellular concentration of dopamine (MAO): increases subsequently | selectivity of inhibition for MAOA / MAOB isoforms (MAOA, MAOB): able to inhibit both the isoforms

NNCCc1ccccc1 [phenelzine]
selectivity of inhibition for MAOA / MAOB isoforms (MAOA, MAOB): lack selectivity

C#CCN[C@@H]1CCc2ccccc21 [rasagiline]
activity of the inflammasome (% cells positive for caspase-1 and MHCII) (caspase-1): significantly inhibit the activity of the inflammasome | release of IL-1β in supernatants (IL-1β [1]): significantly inhibit the release of IL-1β | release of IL-1β in supernatants (IL-1β [2]): significantly inhibit the release of IL-1β | intracellular concentration of dopamine (MAO): increases subsequently | production of ROS (human macrophages [3]): reduces the production of ROS | mitochondrial depolarisation (mitochondrial membrane potential, TMRM) (human macrophages [4]): significantly reduce the mitochondrial depolarisation | activation of NF-κB (NF-κB): reduce the activation of NF-κB | protein levels of pro-IL-1β (NF-κB): reduce | concentration of leucocytes in the peritoneal liquid (mice treated with LPS): clear reduction of the concentration of leucocytes | plasma levels of IL-1β (mice treated with LPS): drastically reduces the increase of plasma levels of IL-1β | selectivity of inhibition for MAOA / MAOB isoforms (MAOA, MAOB): MAOB are selectively inhibited
